We go through 16 compounds from ChEMBL document CHEMBL5620345, “Metal binding pharmacophore click-derived discovery of new broad-spectrum metallo-β-lactamase inhibitors” (Eur J Med Chem, 2023).

The nature of test [1]: Inhibition of recombinant VIM-1 (unknown origin) expressed in Escherichia coli (DE3) cells using FC5 as substrate by microplate reader assay.
The nature of test [2]: Inhibition of recombinant his tagged VIM-2 (unknown origin) expressed in Escherichia coli (DE3) cells using FC5 as substrate by microplate reader assay.
The nature of test [3]: Inhibition of recombinant NDM1 (unknown origin) expressed in Escherichia coli (DE3) cells using FC5 as substrate by microplate reader assay.
Test [4] is described as follows: Inhibition of recombinant VIM-5 (unknown origin) expressed in Escherichia coli (DE3) cells using FC5 as substrate by microplate reader assay.
The nature of test [5]: Inhibition of recombinant his tagged IMP1 (unknown origin) expressed in Escherichia coli (DE3) cells using FC5 as substrate by microplate reader assay.

The IC50 is the point on the concentration scale where inhibition reaches its midpoint. On to `NCC(=O)Nc1cccc(-c2cn(-c3cccc(CP(=O)(O)O)c3)nn2)c1`, for which the IC50 in test [1] came out at 1.82 µM; in test [2] it was 0.29 µM; in test [3], 19.3 µM; in test [4] it was 0.086 µM; in test [5] it was 24.1 µM.

Turning to `Cc1ccc(-c2cn(-c3cccc(CP(=O)(O)O)c3)nn2)cc1`, the IC50 in test [1] was 5.48 µM; in test [2], 0.77 µM; in test [3], 24.6 µM; in test [4], 0.045 µM; in test [5], 4.4 µM.

As for `O=C(NCc1cccc(-c2cn(-c3cccc(CP(=O)(O)O)c3)nn2)c1)C(F)(F)F`, the IC50 is 12.3 µM in test [1]; 1.98 µM in test [2]; 58.4 µM in test [3]; 0.11 µM in test [4]; 6.54 µM in test [5].

Take `Nc1ccc(-c2cn(-c3cccc(CP(=O)(O)O)c3)nn2)cc1`: the IC50 is 5.84 µM in test [1]; 0.17 µM in test [2]; 15.1 µM in test [3]; 0.28 µM in test [4]; 3.24 µM in test [5].

As to `CCCCc1cn(-c2cccc(CP(=O)(O)O)c2)nn1`, the IC50 in test [1] was 16.5 µM; in test [2], 2.23 µM; in test [3], more than 100 µM; in test [4], 1.73 µM; in test [5] it was 12.3 µM.

On to `O=P(O)(O)Cc1cccc(-n2cc(CNc3ccccc3)nn2)c1`, for which the IC50 was 3.77 µM in test [1]; 0.84 µM in test [2]; 2.84 µM in test [3]; 0.64 µM in test [4]; 0.78 µM in test [5].

Consider `O=P(O)(O)Cc1cccc(-n2cc(-c3ccc(F)cc3)nn2)c1`, for which the IC50 was found to be 9.64 µM in test [1]; 0.29 µM in test [2]; 24.3 µM in test [3]; 0.063 µM in test [4]; 2.17 µM in test [5].

Turning to `COc1ccc(-c2cn(-c3cccc(CP(=O)(O)O)c3)nn2)cc1`, the IC50 in test [1] was 4.26 µM; in test [2], 0.17 µM; in test [3], 7.63 µM; in test [4], 0.043 µM; in test [5], 6.41 µM.

For `COc1cccc(-c2cn(-c3cccc(CP(=O)(O)O)c3)nn2)c1`, the IC50 in test [1] was 8.74 µM; in test [2], 0.83 µM; in test [3], 60 µM; in test [4] it was 0.093 µM; in test [5] it was 12.2 µM.

As for `O=P(O)(O)Cc1cccc(-n2cc(-c3ccc(Cl)cc3)nn2)c1`, the IC50 was 7.12 µM in test [1]; 0.44 µM in test [2]; 40.2 µM in test [3]; 0.18 µM in test [4]; 8.34 µM in test [5].

As to `O=P(O)(O)Cc1cccc(-n2cc(-c3cccc(Br)c3)nn2)c1`, the IC50 in test [1] is 4.97 µM; in test [2] it was 0.66 µM; in test [3], 24.2 µM; in test [4] it was 0.016 µM; in test [5] it was 11.3 µM.

In the case of `NCc1cccc(-c2cn(-c3cccc(CP(=O)(O)O)c3)nn2)c1`, the IC50 in test [1] stood at 7.75 µM; in test [2], 2.56 µM; in test [3], 42.5 µM; in test [4], 0.28 µM; in test [5], 37.1 µM.

`O=C(NCc1cn(-c2cccc(CP(=O)(O)O)c2)nn1)C(F)(F)F`: the IC50 in test [1] amounted to 33.7 µM; in test [2] it was 2.22 µM; in test [3], 73.7 µM; in test [4] it was 0.028 µM; in test [5] it was 54.6 µM.

Regarding `O=P(O)(O)Cc1cccc(-n2cc(-c3cccc(Cl)c3)nn2)c1`, the IC50 in test [1] was 6.85 µM; in test [2], 0.24 µM; in test [3], more than 100 µM; in test [4] it was 0.031 µM; in test [5] it was 7.17 µM.

`NCc1cn(-c2cccc(CP(=O)(O)O)c2)nn1`: the IC50 in test [1] was 23.9 µM; in test [2] it was 2.69 µM; in test [3], more than 100 µM; in test [4], 14.5 µM; in test [5], more than 100 µM.

For `O=P(O)(O)Cc1cccc(-n2cc(-c3cccc(F)c3)nn2)c1`, the IC50 amounted to 6.67 µM in test [1]; 0.97 µM in test [2]; 34.7 µM in test [3]; 0.08 µM in test [4]; 6.74 µM in test [5].
